This note sets out measurements from patent US20240218017A1, “PEPTIDE AMPHIPHILES WITH MODIFIED DEGRADING SEQUENCES AND METHODS OF USE THEREOF” (UAB RESEARCH FOUNDATION, priority 2022, published 2024).

Each structure is given as a SMILES string. Peptide text beside a SMILES is read from it. * marks the point of attachment. Palmitoyl = CCCCCCCCCCCCCCCC(=O)*

The series in a line: Solubility in DI water at 1 wt % (visual observation, FIG. 5). The series is classed as physicochemical. On the procedure:
PA-C16-GTAGLKKK-YIGSR (SEQ ID NO: 19) and PA-C16-GTAKKKKK-YIGSR (SEQ ID NO:20) were dissolved in DI water at 1 wt %. […] Higher percent transmittance indicates less opaqueness of solution, which corresponds with increased solubility of the peptide amphiphiles in DI water. Thus, PA-C16-GTAGLKKK-YIGSR (SEQ ID NO: 19) and PA-C16-GTAKKKKK-YIGSR (SEQ ID NO:20) are more soluble than unmodified PA-C16-GTAGLIGQ-YIGSR (SEQ ID NO:21).
With `CCCCCCCCCCCCCCCC(=O)NCC(=O)N[C@H](C(=O)N[C@@H](C)C(=O)NCC(=O)N[C@@H](CC(C)C)C(=O)N[C@H](C(=O)NCC(=O)N[C@@H](CCC(N)=O)C(=O)N[C@@H](Cc1ccc(O)cc1)C(=O)N[C@H](C(=O)NCC(=O)N[C@@H](CO)C(=O)N[C@@H](CCCNC(=N)N)C(=O)O)[C@@H](C)CC)[C@@H](C)CC)[C@@H](C)O` [PA-C16-GTAGLIGQ-YIGSR, PA-C16-GTAGLIGQ-YIGSR (SEQ ID NO:21), reference compound] (Palmitoyl-GTAGLIGQYIGSR-OH; N-terminus and C-terminus assumed), the solubility entry was “insoluble and forms precipitates”.
In the case of `CCCCCCCCCCCCCCCC(=O)NCC(=O)N[C@H](C(=O)N[C@@H](C)C(=O)NCC(=O)N[C@@H](CC(C)C)C(=O)N[C@@H](CCCCN)C(=O)N[C@@H](CCCCN)C(=O)N[C@@H](CCCCN)C(=O)N[C@@H](Cc1ccc(O)cc1)C(=O)N[C@H](C(=O)NCC(=O)N[C@@H](CO)C(=O)N[C@@H](CCCNC(=N)N)C(=O)O)[C@@H](C)CC)[C@@H](C)O` [PA-C16-GTAGLKKK-YIGSR, PA-C16-GTAGLKKK-YIGSR (SEQ ID NO:19)] (Palmitoyl-GTAGLKKKYIGSR-OH; N-terminus and C-terminus assumed) it was “form homogenous, transparent solutions”; in that of `CCCCCCCCCCCCCCCC(=O)NCC(=O)N[C@H](C(=O)N[C@@H](C)C(=O)N[C@@H](CCCCN)C(=O)N[C@@H](CCCCN)C(=O)N[C@@H](CCCCN)C(=O)N[C@@H](CCCCN)C(=O)N[C@@H](CCCCN)C(=O)N[C@@H](Cc1ccc(O)cc1)C(=O)N[C@H](C(=O)NCC(=O)N[C@@H](CO)C(=O)N[C@@H](CCCNC(=N)N)C(=O)O)[C@@H](C)CC)[C@@H](C)O` [PA-C16-GTAKKKKK-YIGSR, PA-C16-GTAKKKKK-YIGSR (SEQ ID NO:20)] (Palmitoyl-GTAKKKKKYIGSR-OH; N-terminus and C-terminus assumed), “form homogenous, transparent solutions”.
